Data taken from PubChem BioAssay (NCI).
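Method: 48-hour compound exposure of cells in 96-well plates, five concentrations, linear interpolation of endpoints. GI50: concentration for 50% inhibition of growth. TGI marks complete inhibition of growth.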

Assays:
Experiment in all cases: NCI tumour cell line growth inhibition, 48 h
ACHN renal = system: ACHN renal
CAKI-1 renal = system: CAKI-1 renal
DU-145 prostate = system: DU-145 prostate
HCT-116 colon = system: HCT-116 colon
MCF7 breast = system: MCF7 breast
MDA-MB-231 breast = system: MDA-MB-231 breast
NCI-H23 lung = system: NCI-H23 lung
NCI-H522 lung = system: NCI-H522 lung
NCI/ADR-RES ovarian = system: NCI/ADR-RES ovarian
UACC-257 melanoma = system: UACC-257 melanoma

SMILES	TGI (ACHN renal) [µM]	TGI (CAKI-1 renal) [µM]	TGI (DU-145 prostate) [µM]	GI50 (HCT-116 colon) [µM]	TGI (HCT-116 colon) [µM]	GI50 (MCF7 breast) [µM]	TGI (MCF7 breast) [µM]	TGI (MDA-MB-231 breast) [µM]	TGI (NCI-H23 lung) [µM]	TGI (NCI-H522 lung) [µM]	TGI (NCI/ADR-RES ovarian) [µM]	TGI (UACC-257 melanoma) [µM]
Nc1ccc(-c2nn3c(COc4ccc(Cl)cc4)nnc3s2)cc1	> 100	> 100	> 100	34.8	> 100	41	> 100	> 100	> 100	> 100	> 100	> 100
S=C1NC2=C(CSC/C2=C\c2ccccc2)C(c2ccccc2)N1 (configuration not stated)	> 100	> 100	> 100		> 100		> 100	> 100	> 100	> 100	> 100	58.8
Cc1cc(C)nc(NS(=O)(=O)c2ccc(NC(=O)c3cccc4c(NNc5ccc(S(=O)(=O)N=C(N)N)cc5)c5ccccc5nc34)cc2)n1	> 50	> 50	> 50		> 50		> 50	> 50	> 50	> 50	> 50	> 50
Cc1cc(O)c(-c2cc(O)c(C)cc2O)cc1O	13.7	14.6	28.5		21.7		47.6	33.3	38.9	12.2	97.1	20.1
COC1C(O)C(O[C@H]2CC[C@@]3(C)C(CC[C@@H]4[C@@H]3CC[C@]3(C)[C@@H](C(C)OC5OC(CO)C(O)C(O)C5O)CC[C@]43O)C2)OC(C)C1OC1OC(CO)C(O)C(O)C1O (some centres not stated)	> 100	> 100	> 100		> 100		> 100	> 100	> 100	> 100	> 100	> 100
CC#CC(O)(C(=O)OC1CC(C)N(C)C(C)(C)C1)C1CCCC1 (configuration not stated)	> 100	> 100	> 100		> 100		> 100	> 100	> 100	> 100	93.6	> 100
O=C1C(C(O)(C(F)(F)F)C(F)(F)F)CCC1C(O)(C(F)(F)F)C(F)(F)F (configuration not stated)	> 61.5	19.8	> 100		13.1		2.26	17.9	6.75	18.9	32.6	34.8
O=S1SC(=S)C2C=CC=CC21 (configuration not stated)	> 100	> 100	> 100		> 100		> 100	> 100	> 100	> 100	> 100	> 100
O=C1c2cccc(O)c2C(=O)c2c(OC3OC(CO)C(O)C(O)C3O)cccc21 (configuration not stated)	> 100	> 100	> 100		51		> 100	> 100	31.6	40.5	68.4	39.9
CCNc1ncnc2sc(SCc3ccccc3)nc12	> 100	> 100	> 100		> 100		> 100	> 100	> 100	> 100	> 100	> 100
Clc1ccc(/C(=C\c2ccccc2)Cn2ccnc2)cc1	67.6	30.1	58.3		29.1		44.5	26.8	> 100	28	38	47.8
COc1nc2c(N3CCCC3)nc(N3CCNCC3)nc2nc1NCc1ccccc1	7.01	8.8	12.3		2.63		3.46	3.72	5.88	2.54	17.1	3.35
CCOC(=O)C1=CC(C)(C(=O)OCC)Nc2c(nc(N)[nH]c2=O)N1 (configuration not stated)	> 10	> 10	> 10		> 10		> 10	> 10	> 10	> 10	> 10	> 10
O=C(CC(C(=O)c1ccco1)c1ccco1)c1ccco1 (configuration not stated)	> 100	> 100	> 100		> 100		> 100	> 100	> 100	> 100	> 100	> 100
CCN(CC)CCO/N=C1\CC[C@H]2[C@@H]3CCc4cc(OC)ccc4[C@H]3CC[C@]12C	13.2	2.13	16.7		2.92		9.49	8.54	18.6	7.02	23.9	2.54
COc1ccc(Oc2cnn(C(Br)(Br)C(C)=O)c(=O)c2Br)cc1	26.4	24.6	42.2		19.2		34.8	32.5	39	14.7	43.9	28.5
O=C1C2=Nc3ccccc3C(O)(C(=O)O)N2c2ccccc21 (configuration not stated)	> 100	> 100	29.8		59.7		46.8	35.4	54.3	50.2	> 100	24.2
